Patent publication US6436988B1, “Use of 3-(2,4,6-trimethylphenyl)-4-neopentylcarbonyloxy-5,5- tetramethylene-Δ3-dihydrofuran-2-one for controlling the white fly” (Bayer Aktiengesellschaft, priority 1999, dated 2002)

Test system: white fly Bemisia tabaci
Assay: Bemisia test
Format: in vivo
Details: concentration of active compound 0.0008 %, infested cotton plants (Gossypium hirsutum) with eggs, larvae and pupae dipped into preparation
Procedure: Solvent: 7.5 parts by weight of dimethylformamide
Emulsifier: 2.5 parts by weight of alkylaryl polyglycol ether
To produce a suitable preparation of active compound, 1 part by weight of active compound is mixed with the stated amounts of solvent and emulsifier, and the concentrate is diluted with water to the desired concentrations.
Cotton plants (Gossypium hirsutum) infested by eggs, larvae and pupae of the white fly Bemisia tabaci are dipped into a preparation of active compound of the desired concentration.
After the desired period of time, the kill in % is determined. 100% means that all animals have been killed; 0% means that none of the animals have been killed.

SMILES | Kill in % after 14 days [%]
Cc1cc(C)c(C2=C(OC(=O)CC(C)(C)C)C3(CCCCC3)OC2=O)c(C)c1 | 50
Cc1cc(C)c(C2=C(OC(=O)C(C)(C)C)C3(CCCC3)OC2=O)c(C)c1 | 0
Cc1cc(C)c(C2=C(OC(=O)CC(C)C)C3(CCCC3)OC2=O)c(C)c1 | 0
Cc1cc(C)c(C2=C(OC(=O)CC(C)(C)C)C3(CCCC3)OC2=O)c(C)c1 [formula (I), 3-(2,4,6-Trimethylphenyl)-4-neopentylcarbonyloxy-5,5-tetramethylene-Δ^3-dihydrofuran-2-one] | 95
